For 25 compounds, IC50 results are on record in patent US8541588B2, “Sulfonamide derivatives” (Pfizer Limited, priority 2009, dated 2013).

For the first assay, the target named is T1, Nav1.7 (or SCN9A) channel; HEK cells stably transfected with hSCN9A (Homo sapiens, UniProt Q15858).
T1 construct: expressed in transfected cells
T1 sequence (Q15858 whole entry): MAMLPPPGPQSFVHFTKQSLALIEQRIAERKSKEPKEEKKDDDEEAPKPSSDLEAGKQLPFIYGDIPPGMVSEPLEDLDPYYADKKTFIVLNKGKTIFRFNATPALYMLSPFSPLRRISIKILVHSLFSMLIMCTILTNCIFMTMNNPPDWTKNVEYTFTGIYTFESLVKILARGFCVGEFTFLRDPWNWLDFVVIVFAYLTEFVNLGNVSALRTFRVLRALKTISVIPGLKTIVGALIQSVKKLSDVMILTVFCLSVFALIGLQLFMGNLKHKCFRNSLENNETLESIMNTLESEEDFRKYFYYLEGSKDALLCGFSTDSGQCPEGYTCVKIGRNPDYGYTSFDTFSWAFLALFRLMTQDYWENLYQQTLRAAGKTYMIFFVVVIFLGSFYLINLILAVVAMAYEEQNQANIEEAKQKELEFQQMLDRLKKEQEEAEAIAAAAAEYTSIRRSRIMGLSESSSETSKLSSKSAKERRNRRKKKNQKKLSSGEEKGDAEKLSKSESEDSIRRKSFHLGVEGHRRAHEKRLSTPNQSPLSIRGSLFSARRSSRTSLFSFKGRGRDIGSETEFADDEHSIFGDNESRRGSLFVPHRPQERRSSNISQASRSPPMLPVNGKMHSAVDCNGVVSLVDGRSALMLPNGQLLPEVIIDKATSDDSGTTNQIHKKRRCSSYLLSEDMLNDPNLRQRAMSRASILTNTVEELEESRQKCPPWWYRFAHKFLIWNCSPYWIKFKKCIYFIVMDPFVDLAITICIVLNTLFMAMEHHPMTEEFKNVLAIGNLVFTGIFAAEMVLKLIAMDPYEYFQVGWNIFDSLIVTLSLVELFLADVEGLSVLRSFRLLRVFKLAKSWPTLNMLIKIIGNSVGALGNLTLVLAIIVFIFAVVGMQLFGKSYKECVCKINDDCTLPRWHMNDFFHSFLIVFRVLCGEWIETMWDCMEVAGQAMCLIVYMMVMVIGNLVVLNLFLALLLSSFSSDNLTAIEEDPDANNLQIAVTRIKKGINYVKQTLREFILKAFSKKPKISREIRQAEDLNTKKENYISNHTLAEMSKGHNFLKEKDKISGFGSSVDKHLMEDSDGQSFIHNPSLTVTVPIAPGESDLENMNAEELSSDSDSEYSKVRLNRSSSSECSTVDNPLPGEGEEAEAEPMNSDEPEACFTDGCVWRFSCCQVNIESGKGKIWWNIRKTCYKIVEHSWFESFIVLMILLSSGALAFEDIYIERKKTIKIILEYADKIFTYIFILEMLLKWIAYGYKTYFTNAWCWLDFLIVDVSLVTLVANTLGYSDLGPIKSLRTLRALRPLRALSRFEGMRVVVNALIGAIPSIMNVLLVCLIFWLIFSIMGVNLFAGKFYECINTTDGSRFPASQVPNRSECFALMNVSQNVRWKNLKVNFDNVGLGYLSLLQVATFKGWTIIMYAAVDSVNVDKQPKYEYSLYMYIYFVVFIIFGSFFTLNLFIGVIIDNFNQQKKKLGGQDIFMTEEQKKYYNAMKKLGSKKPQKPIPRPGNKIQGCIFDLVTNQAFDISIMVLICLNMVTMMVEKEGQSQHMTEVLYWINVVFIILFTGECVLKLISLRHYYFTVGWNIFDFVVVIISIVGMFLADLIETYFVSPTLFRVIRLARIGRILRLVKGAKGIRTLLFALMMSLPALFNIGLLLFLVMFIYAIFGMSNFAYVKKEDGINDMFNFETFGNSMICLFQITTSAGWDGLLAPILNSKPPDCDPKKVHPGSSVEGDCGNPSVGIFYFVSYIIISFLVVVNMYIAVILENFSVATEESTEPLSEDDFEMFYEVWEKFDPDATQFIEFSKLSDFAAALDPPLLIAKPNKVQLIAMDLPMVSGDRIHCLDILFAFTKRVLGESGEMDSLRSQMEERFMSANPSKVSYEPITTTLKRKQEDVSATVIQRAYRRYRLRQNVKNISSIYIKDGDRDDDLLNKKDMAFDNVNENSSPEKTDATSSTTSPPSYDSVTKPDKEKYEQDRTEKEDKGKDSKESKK
As to the kind of experiment: Nav1.7 block, PatchXpress 7000 automated whole-cell voltage clamp, estimated IC50 (EIC50). The assay is classed as cell-based. To be noted: PatchXpress platform; hSCN9A HEK cells held at V1/2 of inactivation; estimated IC50.
For orientation: IC50 means the point on the concentration scale where inhibition reaches its midpoint. Regarding “3-fluoro-4-(4-methyl-2-(1-methyl-1H-pyrazol-3-yl)phenoxy)-N-(thiazol-2-yl)benzenesulfonamide [Example 215]”, the IC50 is 6440 nM.
For `N#Cc1cc(S(=O)(=O)Nc2ncns2)ccc1Oc1cc(C(F)(F)F)nn1-c1ccc(F)cc1F` [Example 58, 3-cyano-4-{[1-(2,4-difluorophenyl)-3-(trifluoromethyl)-1H-pyrazol-5-yl]oxy}-N-1,2,4-thiadiazol-5-ylbenzenesulfonamide], the 50% inhibitory concentration (IC50) was 340 nM.
Consider `N#Cc1cc(S(=O)(=O)Nc2ncns2)ccc1Oc1cc(C(F)(F)F)nn1-c1ccccc1F` [Example 88, 3-cyano-4-{[1-(2-fluorophenyl)-3-(trifluoromethyl)-1H-pyrazol-5-yl]oxy}-N-1,2,4-thiadiazol-5-ylbenzenesulfonamide], for which the IC50 was 270 nM.
Turning to `O=S(=O)(Nc1ncns1)c1ccc(Oc2ccccc2-c2ccccc2)c(C(F)(F)F)c1` [Example 205, 4-(biphenyl-2-yloxy)-N-1,2,4-thiadiazol-5-yl-3-(trifluoromethyl)benzenesulfonamide], the half-maximal inhibitory concentration (IC50) is 330 nM.
Still for that read-out and setting: then `N#Cc1cc(S(=O)(=O)Nc2ncns2)ccc1Oc1ccccc1-c1cccc(OC(F)(F)F)c1` [Example 55, 3-cyano-N-1,2,4-thiadiazol-5-yl-4-{[3′-(trifluoromethoxy)biphenyl-2-yl]oxy}benzenesulfonamide], with 920 nM.
Still for that read-out and setting: then `Cc1n[nH]c(C)c1-c1ccccc1Oc1ccc(S(=O)(=O)Nc2ncns2)cc1C#N` [Example 62, 3-cyano-4-[2-(3,5-dimethyl-1H-pyrazol-4-yl)phenoxy]-N-1,2,4-thiadiazol-5-ylbenzenesulfonamide], with 3980 nM; and `Cc1ccc(Oc2ccc(S(=O)(=O)Nc3ncns3)cc2C#N)c(-c2nn(C)cc2C)c1` [Example 28, 3-cyano-4-(2-(1,4-dimethyl-1H-pyrazol-3-yl)-4-methylphenoxy)-N-(1,2,4-thiadiazol-5-yl)benzenesulfonamide], with 2980 nM.
Same read-out and setting: with `Cn1nccc1-c1cc(CO)ccc1Oc1ccc(S(=O)(=O)Nc2ncns2)cc1C#N` [Example 91, 3-cyano-4-(4-(hydroxymethyl)-2-(1-methyl-1H-pyrazol-5-yl)phenoxy)-N-(1,2,4-thiadiazol-5-yl)benzenesulfonamide] the figure was 1120 nM.

Still in this assay, the particulars now being: estimated IC50; hSCN9A HEK cells, PatchXpress platform; Examples 283-814.
In the case of `Nc1ccc(-c2cc(Cl)ccc2Oc2cc(F)c(S(=O)(=O)Nc3ncns3)cc2F)cn1` [Example 410, 4-[2-(6-aminopyridin-3-yl)-4-chlorophenoxy]-2,5-difluoro-N-1,2,4-thiadiazol-5-ylbenzenesulfonamide], the IC50 is 29 nM.
As for `CC(C)(C)n1nccc1-c1cc(F)ccc1Oc1ccc(S(=O)(=O)Nc2ncns2)cc1Cl` [Example 476, 4-[2-(1-tert-butyl-1H-pyrazol-5-yl)-4-fluorophenoxy]-3-chloro-N-1,2,4-thiadiazol-5-ylbenzenesulfonamide], the IC50 is 170 nM.
For `N#Cc1cc(S(=O)(=O)Nc2nccs2)ccc1Oc1ccc(Br)cc1CN1CCCC1` [Example 355, 4-[4-bromo-2-(pyrrolidin-1-ylmethyl)phenoxy]-3-cyano-N-1,3-thiazol-2-ylbenzenesulfonamide], the IC50 was 400 nM.
As to `N#Cc1cc(S(=O)(=O)Nc2cscn2)ccc1Oc1ccc(Cl)cc1-c1ccn(C(F)(F)F)n1` [Example 398, 4-{4-chloro-2-[1-(trifluoromethyl)-1H-pyrazol-3-yl]phenoxy}-3-cyano-N-1,3-thiazol-4-ylbenzenesulfonamide], the half-maximal inhibitory concentration (IC50) was above 1000 nM.
Consider `Cn1cc(C(F)(F)F)nc1-c1ccc(Oc2ccc(S(=O)(=O)Nc3nccs3)cc2C#N)cc1` [Example 320, 3-cyano-4-{4-[1-methyl-4-(trifluoromethyl)-1H-imidazol-2-yl]phenoxy}-N-1,3-thiazol-2-ylbenzenesulfonamide], for which the IC50 was 3300 nM.
Consider `N#Cc1cc(S(=O)(=O)Nc2ncns2)ccc1Oc1ccc(Br)cc1-c1cn[nH]c1` [Example 503, 4-[Bromo-2-(1H-pyrazol-4-yl)phenoxy]-3-cyano-N-1,2,4-thiadiazol-5-ylbenzenesulfonamide], for which the IC50 was 7 nM.
Take `O=S(=O)(Nc1ncns1)c1ccc(Oc2ccc(Cl)cc2-c2cn[nH]c2)c(Cl)c1` [Example 724, 3-chloro-4-[4-chloro-2-(1H-pyrazol-4-yl)phenoxy]-N-1,2,4-thiadiazol-5-ylbenzenesulfonamide]: the IC50 is 1.7 nM.
On to `O=S(=O)(Nc1ncns1)c1cc(Cl)c(Oc2ccc(F)cc2-c2ccn[nH]2)cc1F` [Example 620, 5-chloro-2-fluoro-4-[4-fluoro-2-(1H-pyrazol-5-yl)phenoxy]-N-1,2,4-thiadiazol-5-ylbenzenesulfonamide], for which the IC50 was 4.8 nM.
`Cc1ccnc(NS(=O)(=O)c2ccc(Oc3ccccc3-c3ccccc3)c(C#N)c2)n1` [Example 425, 4-(biphenyl-2-yloxy)-3-cyano-N-(4-methylpyrimidin-2-yl)benzenesulfonamide]: the IC50 was 11000 nM.
Still for that read-out and setting: with `Cc1n[nH]cc1-c1cc(Cl)ccc1Oc1cc(F)c(S(=O)(=O)Nc2cscn2)cc1Cl` [Example 662, 5-chloro-4-[4-chloro-2-(3-methyl-1H-pyrazol-4-yl)phenoxy]-2-fluoro-N-1,3-thiazol-4-ylbenzenesulfonamide] the figure was 33 nM.

Still in this assay, the particulars now being: estimated IC50; hSCN9A HEK cells, PatchXpress platform; Examples 815-1040.
With `Cn1nccc1-c1cc(Cl)ccc1Oc1ccc(S(=O)(=O)Nc2cncnc2)cc1C#N` [Example 895, 4-[4-chloro-2-(1-methyl-1H-pyrazol-5-yl)phenoxy]-3-cyano-N-pyrimidin-5-ylbenzenesulfonamide], the IC50 was above 30000 nM.
On the same count and under the same terms, with `O=S(=O)(Nc1nncs1)c1cc(Cl)c(Oc2cc(OC(F)(F)F)ccc2-c2ccnnc2)cc1F` [Example 966, 5-chloro-2-fluoro-4-[2-pyridazin-4-yl-5-(trifluoromethoxy)phenoxy]-N-1,3,4-thiadiazol-2-ylbenzenesulfonamide] the figure was 40 nM; with `O=C(c1cccc(-c2cc(Cl)ccc2Oc2cc(F)c(S(=O)(=O)Nc3nncs3)cc2Cl)c1)N1CCC1` [Example 857, 4-{[3′-(azetidin-1-ylcarbonyl)-5-chlorobiphenyl-2-yl]oxy}-5-chloro-2-fluoro-N-1,3,4-thiadiazol-2-ylbenzenesulfonamide], 14 nM; with `N#Cc1cc(S(=O)(=O)Nc2cscn2)ccc1Oc1ccc(C(F)(F)F)cc1-c1ccnn1C1CNC1` [Example 969, 4-[2-(1-azetidin-3-yl-1H-pyrazol-5-yl)-4-(trifluoromethyl)phenoxy]-3-cyano-N-1,3-thiazol-4-ylbenzenesulfonamide], 4.1 nM.
The same measure, in the same setting: then `Nc1cc(-c2cc(F)ccc2Oc2cc(F)c(S(=O)(=O)Nc3ncns3)cc2Cl)[nH]n1` [Example 840, 4-[2-(3-amino-1H-pyrazol-5-yl)-4-fluorophenoxy]-5-chloro-2-fluoro-N-1,2,4-thiadiazol-5-ylbenzenesulfonamide], with 52 nM; and `O=S(=O)(Nc1ncns1)c1cc(F)c(Oc2ccc(Cl)cc2-c2ccnc(CN3CCC3)c2)cc1F` [Example 838, 4-{2-[2-(azetidin-1-ylmethyl)pyridin-4-yl]-4-chlorophenoxy}-2,5-difluoro-N-1,2,4-thiadiazol-5-ylbenzenesulfonamide], with 1.8 nM; and `CN(C)C(=O)c1cccc(-c2ccccc2)c1Oc1ccc(S(=O)(=O)Nc2ncns2)cc1C#N` [Example 1008, 2-{2-cyano-4-[(1,2,4-thiadiazol-5-ylamino)sulfonyl]phenoxy}-N,N-dimethylbiphenyl-3-carboxamide], with 740 nM.
